The values below come from patent publication US9511073B2, “Aromatic amides and uses thereof” (TAXIS Pharmaceuticals, Inc., priority 2011, dated 2016).

≈ marks a conversion by molar mass, not a printed value. Where only a bound is given, the exact number is not on record here.

One test deals with Staphylococcus aureus (Isolate ID ATCC 29213). The test is described as follows: Bacterial assay: MIC by broth microdilution or agar dilution (CLSI), S. aureus ATCC 29213. Type of test: cell-based. The settings on record: S. aureus (ATCC29213). The gist of the method:
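MICs by CLSI broth microdilution or agar dilution against S. aureus ATCC 29213 and its FtsZ-G196A mutant. Values reported as ranges: A ≤0.25 μg/mL, B >0.25–1.0, C >1.0–16, D >16 μg/mL.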
Consider `NC(=O)c1c(F)ccc(OC(COC(=O)NCc2ccccn2)c2nc(-c3ccc(C(F)(F)F)cc3)c(Br)o2)c1F` (centres unmarked) [Compound 165, 2-(5-bromo-4-(4-(trifluoromethyl)phenyl)oazol-2-yl)-2-(3-carbamoyl-2,4-difluorophenoxy)ethyl (pyridin-2-ylmethyl)carbamate], for which the “S. aureus MIC (μg/mL) Activity Range” value is reported as “B (activity>0.25 μg/mL-1.0 μg/mL)”.

Still in this test, the particulars now being: Staphylococcus aureus, ATCC29213, read-out: S. aureus MIC (μg/mL) Activity Range, S. aureus (ATCC29213).
As to `NC(=O)c1c(F)ccc(OC(COP(=O)(O)O)c2nc(-c3ccc(C(F)(F)F)cc3)c(Br)o2)c1F` (centres unmarked) [Compound 81, 2-(5-bromo-4-(4-(trifluoromethyl)phenyl)oxazol-2-yl)-2-(3-carbamoyl-2,4-difluorophenoxy)ethyl dihydrogen phosphate], the MIC was 0.25 to 1 µg/mL. On to `C=CCc1oc(C(C)Oc2ccc(F)c(C(N)=O)c2F)nc1-c1ccc(Cl)cc1` (centres unmarked) [Compound 7], for which the MIC lay within 0.25 to 1 µg/mL (≈ 0.597 to 2.39 µM). As for `NC(=O)c1c(F)ccc(OC(c2nc(-c3ccc(C(F)(F)F)cc3)c(Br)o2)C(O)CO)c1F` (centres unmarked) [Compound 189, 3-(1-(5-bromo-4-(4-(trifluoromethyl)phenyl)oxazol-2-yl)-2,3-dihydroxypropoxy)-2,6-difluorobenzamide], the MIC lay in the range of 1 to 16 µg/mL (≈ 1.86 to 29.8 µM). On the same count and under the same terms, the value for `C=CCc1oc(C(C)Oc2ccc(F)c(C(N)=O)c2F)nc1-c1ccc(OC(F)(F)F)cc1` (centres unmarked) [Compound 17, 3-(1-(5-allyl-4-(4-(trifluoromethoxy)phenyl)oxazol-2-yl)ethoxy)-2,6-difluorobenzamide] was 0.25 to 1 µg/mL (≈ 0.534 to 2.14 µM); that for `COC(=O)CCNC(=O)OCC(Oc1ccc(F)c(C(N)=O)c1F)c1nc(-c2ccc(C(F)(F)F)cc2)c(Br)o1` (centres unmarked) [Compound 141, methyl 3-(((2-(5-bromo-4-(4-(trifluoromethyl)phenyl)oxazol-2-yl)-2-(3-carbamoyl-2,4-difluorophenoxy)ethoxy)carbonyl)amino)propanoate] was < 0.25 µg/mL.

As to `Cn1ccc(CNC(=O)OCC(Oc2ccc(F)c(C(N)=O)c2F)c2nc(-c3ccc(C(F)(F)F)cc3)c(Br)o2)n1` (centres unmarked) [Compound 193, 2-(5-bromo-4-(4-(trifluoromethyl)phenyl)oxazol-2-yl)-2-(3-carbamoyl-2,4-difluorophenoxy)ethyl ((1-methyl-1H-pyrazol-3-yl)methyl)carbamate], the MIC was < 0.25 µg/mL. The same measure, in the same setting: in the case of `COc1cc(CNC(=O)OCC(Oc2ccc(F)c(C(N)=O)c2F)c2nc(-c3ccc(C(F)(F)F)cc3)c(Br)o2)ccn1` (centres unmarked) [Compound 209, 2-(5-bromo-4-(4-(trifluoromethyl)phenyl)oxazol-2-yl)-2-(3-carbamoyl-2,4-difluorophenoxy)ethyl ((2-methoxypyridin-4-yl)methyl)carbamate] it was 0.25 to 1 µg/mL (≈ 0.372 to 1.49 µM). For `C=CCOP(=O)(O)OCC(Oc1ccc(F)c(C(N)=O)c1F)c1nc(-c2ccc(C(F)(F)F)cc2)c(Br)o1` (centres unmarked) [Compound 75, allyl (2-(5-bromo-4-(4-(trifluoromethyl)phenyl)oxazol-2-yl)-2-(3-carbamoyl-2,4-difluorophenoxy)ethyl) hydrogen phosphate], the MIC is > 16 µg/mL. As to `COCc1oc([C@@H](CO)Oc2ccc(F)c(C(N)=O)c2F)nc1-c1ccc(OC)cc1` [Compound 304B, (R)-2,6-difluoro-3-(2-hydroxy-1-(5-(methoxymethyl)-4-(4-methoxyphenyl)oxazol-2-yl)ethoxy)benzamide], the MIC is 1 to 16 µg/mL (≈ 2.3 to 36.8 µM).

For the molecule `CCCc1nc(C(CO)Oc2ccc(F)c(C(N)=O)c2F)oc1Br` (centres unmarked) [Compound 221, 3-(1-(5-bromo-4-propyloxazol-2-yl)-2-hydroxyethoxy)-2,6-difluorobenzamide], the MIC fell in the range of 1 to 16 µg/mL (≈ 2.47 to 39.5 µM). Regarding `COc1ncc(-c2nc([C@@H](CO)Oc3ccc(F)c(C(N)=O)c3F)oc2Br)cn1` [Compound 257B, (R)-3-(1-(5-bromo-4-(2-methoxypyrimidin-5-yl)oxazol-2-yl)-2-hydroxyethoxy)-2,6-difluorobenzamide], the MIC was > 16 µg/mL. With `CCC(Oc1ccc(F)c(C(N)=O)c1F)c1nc(-c2ccc(Cl)cc2)c(Br)o1` (centres unmarked) [Compound 18, 3-(1-(5-bromo-4-(4-chlorophenyl)oxazol-2-yl)propoxy)-2,6-difluorobenzamide], the MIC is 1 to 16 µg/mL (≈ 2.12 to 33.9 µM). Still for that read-out and setting: in the case of `CNCC(=O)OCC(Oc1ccc(F)c(C(N)=O)c1F)c1nc(-c2ccc(Cl)cc2)c(Cl)o1` (centres unmarked) [Compound 59, 2-(3-carbamoyl-2,4-difluorophenoxy)-2-(5-chloro-4-(4-chlorophenyl)oxazol-2-yl)ethyl 2-(methylamino)acetate] it was 0.25 to 1 µg/mL (≈ 0.5 to 2 µM).

Consider `C=CCC(Oc1ccc(F)c(C(N)=O)c1F)c1nc(-c2ccc(C(F)(F)F)cc2)c(Br)o1` (centres unmarked) [Compound 106, 3-((1-(5-bromo-4-(4-(trifluoromethyl)phenyl)oxazol-2-yl)but-3-en-1-yl)oxy)-2,6-difluorobenzamide], for which the MIC was 1 to 16 µg/mL (≈ 1.93 to 30.9 µM).

As for `NC(=O)OCC(Oc1ccc(F)c(C(N)=O)c1F)c1nc(-c2ccc(C(F)(F)F)cc2)c(Cl)o1` (centres unmarked) [Compound 52, 2-(3-carbamoyl-2,4-difluorophenoxy)-2-(5-chloro-4-(4-(trifluoromethyl)phenyl)oxazol-2-yl)ethyl carbamate], the MIC was in the range of 0.25 to 1 µg/mL (≈ 0.494 to 1.98 µM).

Regarding `CCOC(=O)CCC(=O)OCC(Oc1ccc(F)c(C(N)=O)c1F)c1nc(-c2ccc(C(F)(F)F)cc2)c(Cl)o1` (centres unmarked) [Compound 56, 2-(3-carbamoyl-2,4-difluorophenoxy)-2-(5-chloro-4-(4-(trifluoromethyl)phenyl)oxazol-2-yl)ethyl ethyl succinate], the MIC fell in the range of 0.25 to 1 µg/mL. Regarding `CNC(=O)CCC(Oc1ccc(F)c(C(N)=O)c1F)c1nc(-c2ccc(C(F)(F)F)cc2)c(Br)o1` (centres unmarked) [Compound 93, 3-(1-(5-bromo-4-(4-(trifluoromethyl)phenyl)oxazol-2-yl)-4-(methylamino)-4-oxobutoxy)-2,6-difluorobenzamide], the MIC was 0.25 to 1 µg/mL (≈ 0.445 to 1.78 µM). Same read-out and setting: in the case of `CN(CCNC(=O)OCC(Oc1ccc(F)c(C(N)=O)c1F)c1nc(-c2ccc(C(F)(F)F)cc2)c(Br)o1)C(=O)OC(C)(C)C` (centres unmarked) [Compound 153, tert-butyl (2-(((2-(5-bromo-4-(4-(trifluoromethyl)phenyl)oxazol-2-yl)-2-(3-carbamoyl-2,4-difluorophenoxy)ethoxy)carbonyl)amino)ethyl)(methyl)carbamate] it was 0.25 to 1 µg/mL (≈ 0.353 to 1.41 µM); in that of `CC(=O)OCCCC(Oc1ccc(F)c(C(N)=O)c1F)c1nc(-c2ccc(C(F)(F)F)cc2)c(Br)o1` (centres unmarked) [Compound 89, 4-(5-bromo-4-(4-(trifluoromethyl)phenyl)oxazol-2-yl)-4-(3-carbamoyl-2,4-difluorophenoxy)butyl acetate], 0.25 to 1 µg/mL; in that of `Cc1nccn1CCNC(=O)OCC(Oc1ccc(F)c(C(N)=O)c1F)c1nc(-c2ccc(C(F)(F)F)cc2)c(Br)o1` (centres unmarked) [Compound 190, 2-(5-bromo-4-(4-(trifluoromethyl)phenyl)oxazol-2-yl)-2-(3-carbamoyl-2,4-difluorophenoxy)ethyl (2-(2-methyl-1H-imidazol-1-yl)ethyl)carbamate], 1 to 16 µg/mL (≈ 1.52 to 24.3 µM). Same read-out and setting: the value for `NC(=O)c1c(F)ccc(OC(CO)c2nc(C3CCOCC3)co2)c1F` (centres unmarked) [Compound 182, 2,6-difluoro-3-(2-hydroxy-1-(4-(tetrahydro-2H-pyran-4-yl)oxazol-2-yl)ethoxy)benzamide] was > 16 µg/mL; that for `NC(=O)c1c(F)ccc(OC(CO)c2nc(-c3ccc(Cl)cc3)c(Cl)o2)c1F` (centres unmarked) [Compound 47, 3-(1-(5-chloro-4-(4-chlorophenyl)oxazol-2-yl)-2-hydroxyethoxy)-2,6-difluorobenzamide] was 0.25 to 1 µg/mL (≈ 0.582 to 2.33 µM).

Consider `COc1cc(Cl)c(Br)cc1-c1nc(C(CO)Oc2ccc(F)c(C(N)=O)c2F)oc1Br` (centres unmarked) [Compound 232, 3-(1-(5-bromo-4-(5-bromo-4-chloro-2-methoxyphenyl)oxazol-2-yl)-2-hydroxyethoxy)-2,6-difluorobenzamide], for which the MIC fell in the range of 1 to 16 µg/mL (≈ 1.72 to 27.5 µM). Still for that read-out and setting: in the case of `COc1ccc(CCc2csc(C(CO)Oc3ccc(F)c(C(N)=O)c3F)n2)cc1` (centres unmarked) [Compound 262, 2,6-difluoro-3-(2-hydroxy-1-(4-(4-methoxyphenethyl)thiazol-2-yl)ethoxy)benzamide] it was 1 to 16 µg/mL (≈ 2.3 to 36.8 µM). Regarding `COCCOc1ccc(-c2nc(C(CO)Oc3ccc(F)c(C(N)=O)c3F)oc2Br)cc1` (centres unmarked) [Compound 242, 3-(1-(5-bromo-4-(4-(2-methoxyethoxy)phenyl)oxazol-2-yl)-2-hydroxyethoxy)-2,6-difluorobenzamide], the MIC fell in the range of 1 to 16 µg/mL (≈ 1.95 to 31.2 µM). `NC(=O)c1c(F)ccc(OC(COCC(=O)O)c2nc(-c3ccc(C(F)(F)F)cc3)c(Br)o2)c1F` (centres unmarked) [Compound 86, 2-(2-(5-bromo-4-(4-(trifluoromethyl)phenyl)oxazol-2-yl)-2-(3-carbamoyl-2,4-difluorophenoxy)ethoxy)acetic acid]: the MIC is > 16 µg/mL. Still for that read-out and setting: in the case of `CS(=O)(=O)NCC(Oc1ccc(F)c(C(N)=O)c1F)c1nc(-c2ccc(C(F)(F)F)cc2)co1` (centres unmarked) [Compound 284, 2,6-difluoro-3-(2-(methylsulfonamido)-1-(4-(4-(trifluoromethyl)phenyl)oxazol-2-yl)ethoxy)benzamide] it was > 16 µg/mL; in that of `CCOC(=O)COCC(Oc1ccc(F)c(C(N)=O)c1F)c1nc(-c2ccc(C(F)(F)F)cc2)c(Br)o1` (centres unmarked) [Compound 84, ethyl 2-(2-(5-bromo-4-(4-(trifluoromethyl)phenyl)oxazol-2-yl)-2-(3-carbamoyl-2,4-difluorophenoxy)ethoxy)acetate], 0.25 to 1 µg/mL (≈ 0.421 to 1.69 µM); in that of `N#Cc1ccc(-c2nc(C(CO)Oc3ccc(F)c(C(N)=O)c3F)oc2Br)s1` (centres unmarked) [Compound 236, 3-(1-(5-bromo-4-(5-cyanothiophen-2-yl)oxazol-2-yl)-2-hydroxyethoxy)-2,6-difluorobenzamide], 0.25 to 1 µg/mL (≈ 0.532 to 2.13 µM). The same measure, in the same setting: the value for `NC(=O)c1c(F)ccc(OC(Cn2ccnc2)c2nc(-c3ccc(C(F)(F)F)cc3)c(Br)o2)c1F` (centres unmarked) [Compound 114, 3-(1-(5-bromo-4-(4-(trifluoromethyl)phenyl)oxazol-2-yl)-2-(1H-imidazol-1-yl)ethoxy)-2,6-difluorobenzamide] was 1 to 16 µg/mL (≈ 1.79 to 28.7 µM). As for `CC(=O)OCCC(Oc1ccc(F)c(C(N)=O)c1F)c1nc(-c2ccc(C(F)(F)F)cc2)c(Br)o1` (centres unmarked) [Compound 72, 3-(5-bromo-4-(4-(trifluoromethyl)phenyl)oxazol-2-yl)-3-(3-carbamoyl-2,4-difluorophenoxy)propyl acetate], the MIC was in the range of 1 to 16 µg/mL.
